These results are taken from patent publication US20080281105A1, “Novel Quinolinium Salts and Derivatives” (IMMUSOL INCORPORATED, priority 2005, published 2008).

Some results are limits rather than exact numbers.

The subject of one experiment is A549 cancer cells. As to the kind of experiment: A549 NSCL xenograft model, combination with 2DG. Format: in vivo, mice. The following applies: 2DG 300 mg/kg, Example 36 2 mg/kg, i.p. daily (6 times per week); Example 36 alone p<0.05 at day 24 and 27; combination p<0.05 at day 13-27; FIG. 7. From the text:
Because the compounds of the invention may be more toxic to cancer cells deprived of glucose or treated with 2DG in vitro, the combination of 2DG with such compounds should have increased anti-tumor efficacy in vivo as compared with either agent alone. Accordingly, the effect of a combination therapy of the compound of Example 36 and 2DG using A549 NSCL xenograft model was examined.
Female athymic nude mice (nu/nu) (4-6 weeks old) were inoculated (s.c.) with 5×10^6 A549 cancer cells in PBS on the flanking site. After the tumors reached an average size ˜100 mm^3, the animals were divided into four treatment groups—0.9% NaCl (control), 2DG at 300 mg/kg, the compound of Example 36 at 2 mg/kg, and a combination of 2DG (300 mg/kg) and the compound of Example 36 (2 mg/kg). All the treatments were delivered by intraperitoneal injection daily (6 times per week). Tumor size and body weight were measured twice per week. Tumor volume was calculated using the formula TV=length×width×width/2.

Experiment [1] deals with Panc-1, HCT-116, Pc3M/N, HEPG2, ASPC1, or H460 cells. As to the kind of experiment: Reduction of viable cell growth in glucose deprived media (liquid culture, alamarBlue). Format: cell-based. Particulars: concentration giving at least 50% reduction of viable cell growth. A general note: Resazurin is reduced to fluorescent resorufin, in cell work by metabolically active cells.

In experiment [2] the test system is Lewis lung cancer cells. Kind of experiment: Mouse LLC model, combination with 2DG. The following applies: Example 36 2 mg/kg, 2DG 300 mg/kg, i.p. 6 times per week; p<0.05; FIG. 8. Format: in vivo, mice. The method, then: (§1) More specifically, female C57BL mice (4-6 weeks old) were inoculated (s.c.) with 5×10^5 Lewis lung cancer cells in PBS on the flanking site. Animals were randomly divided into treatment and control groups (n=8) based on tumor size when average tumor size reached 100 mm^3. Animals in the treatment groups received the compound of Example 36 daily at 2 mg/kg and 2DG at 300 mg/kg via intraperitoneal dosing, 6 times per week respectively. Tumor size and body weight were measured twice per week. Tumor volume was calculated using the formula TV=length×width×width/2.

Experiment [3] concerns Lewis lung cancer cells. As to the kind of experiment: Mouse Lewis lung cancer (LLC) xenograft model. Format: in vivo, mice. The following applies: 2 mg/kg intraperitoneal, 6 times per week; day 15; p<0.05; FIG. 6. As for the experimental part:
as §1, with “Using the mouse Lewis lung cancer (LLC) xenograft model, female” for “More specifically, female”, “treatment group” for “treatment groups”, “36 (also designated IMS2143) or the compound of Example 47” for “36”, “2” for “2 mg/kg and 2DG at 300”, “respectively. The control group was injected with 0.9% NaCl.” for “respectively.”

Take `CCCCOc1ccc(/C=C/c2ccc3cc(N(C)C)ccc3[n+]2C)cc1.O=S(=O)([O-])C(F)(F)F` [Example 36]: the A549 tumor growth entry in the experiment with A549 cancer cells is given as “significantly inhibited tumor growth”. The molecule also had an EC50 in experiment [1] of under 1 µM. For the same molecule, in the experiment with Lewis lung cancer cells [2], the “LLC tumor growth as compared with 2DG alone or control” value is “significantly inhibited tumor growth”. Also, the LLC tumor growth result with Lewis lung cancer cells [3] is given as “significantly suppressed tumor growth”.

The EC50 is the concentration giving half of the maximal effect. High values mean lower potency in that assay, low ones higher potency in that assay.
